Test results taken from ChEMBL document CHEMBL5137099, “Discovery of Novel cccDNA Reducers toward the Cure of Hepatitis B Virus Infection” (J Med Chem, 2022).
pIC50: −log10 of the molar value. Calls of active or inactive are those of the source. The calls are words filed in the database; no cut-off is given here.

How the values were obtained:
[1] = fCaverage in HBVcircle mouse model at 100 mg/kg BID; assay type: ADME, organism-based; conditions: in vivo
[2] = fCmax in HBVcircle mouse model at 100 mg/kg QD; assay type: ADME, organism-based; conditions: in vivo
[3] = Dose normalized AUC (0 to 12 hrs) in C3H/J mouse at 300 mg/kg, po by LC-MS/MS analysis; assay type: ADME, organism-based; conditions: in vivo
[4] = Half life in C3H/J mouse at 100 mg/kg, po by LC-MS/MS analysis; assay type: ADME, organism-based; conditions: in vivo
[5] = fCmin in HBVcircle mouse model at 300 mg/kg BID; assay type: ADME, organism-based; conditions: in vivo
[6] = Cmax in C3H/J mouse plasma at 100 mg/kg, po by LC-MS/MS analysis; assay type: ADME, organism-based; design: dose 100 mg/kg, route po
Hepatitis B virus [7] = assay: Antiviral activity against HBV infected in human primary hepatocyte cells assessed as reduction in HBV cccDNA production by measuring inhibition of HBsAg secretion measured after 48 hrs by ELISA; assay type: functional, organism-based
[8] = fCaverage in HBVcircle mouse model at 300 mg/kg BID; assay type: ADME, organism-based; conditions: in vivo
[9] = AUC (0 to infinity) in C3H/J mouse at 20 mg/kg, po by LC-MS/MS analysis; assay type: ADME, organism-based; design: time infinity, dose 20 mg/kg, route po; conditions: in vivo
[10] = Aqueous solubility of the compound; assay type: physicochemical; conditions: buffer
Hepatitis B virus [11] = assay: Antiviral activity against HBV infected in human HepDES19 cells assessed as reduction in HBV cccDNA production by measuring inhibition of HBeAg secretion incubated for 5 days by ELISA; assay type: functional, organism-based; conditions: HepDES19, 120 h
[12] = Toxicity in C3H/J mouse assessed as tolerability at 100 to 300 mg/kg BID for 5 days; assay type: organism-based; conditions: in vivo, 120 h, dose 100-300 mg/kg, time 5 day
[13] = Dose normalized AUC (0 to 24 hrs) in C3H/J mouse at 100 mg/kg, po by LC-MS/MS analysis; assay type: ADME, organism-based; conditions: in vivo
[14] = Tmax in C3H/J mouse at 5 mg/kg, po by LC-MS/MS analysis; assay type: ADME, organism-based; conditions: in vivo
[15] = AUC (0 to 12 hrs) in C3H/J mouse at 300 mg/kg, po by LC-MS/MS analysis; assay type: ADME, organism-based; design: time < 12 hr, dose 300 mg/kg, route po; conditions: in vivo
Hepatitis B virus [16] = assay: Antiviral activity against HBV infected in human HepG2 cells assessed as reduction in HBeAg secretion incubated for 5 days by counter screen assay; assay type: functional, organism-based; conditions: HepG2, 120 h
Hepatitis B virus [17] = assay: Antiviral activity against HBV infected in human HepDES19 cells assessed as reduction in HBV cccDNA production by measuring inhibition of HBeAg secretion at 0.3 to 30 uM by southern blot analysis; assay type: functional, organism-based; conditions: dose 0.3-30 µM
Hepatitis B virus [18] = assay: Antiviral activity against HBV infected HBVcircle mouse model assessed as reduction in HBsAg levels in mouse serum at 300 mg/kg, po bid treated for 3 weeks and measured up to 56 days; assay type: functional, organism-based
[19] = Tmax in C3H/J mouse at 100 mg/kg, po by LC-MS/MS analysis; assay type: ADME, organism-based; conditions: in vivo
[20] = AUC (0 to infinity) in C3H/J mouse at 100 mg/kg, po by LC-MS/MS analysis; assay type: ADME, organism-based; design: time infinity, dose 100 mg/kg, route po; conditions: in vivo
[21] = Dose normalized Cmax in C3H/J mouse at 20 mg/kg, po by LC-MS/MS analysis; assay type: ADME, organism-based; conditions: in vivo
Hepatitis B virus [22] = assay: Antiviral activity against HBV infected HBVcircle mouse model assessed as reduction in cccDNA levels in mouse liver at 300 mg/kg, po bid treated for 3 weeks and measured up to 56 days by qPCR analysis; assay type: functional, organism-based
[23] = Dose normalized AUC (0 to 24 hrs) in C3H/J mouse at 20 mg/kg, po by LC-MS/MS analysis; assay type: ADME, organism-based; conditions: in vivo
[24] = Octanol-aqueous buffer distribution coefficient, log D of the compound at pH 7.4 by CAMDIS assay; assay type: physicochemical
[25] = Half life in C3H/J mouse at 20 mg/kg, po by LC-MS/MS analysis; assay type: ADME, organism-based; conditions: in vivo
[26] = Cmax in C3H/J mouse plasma at 20 mg/kg, po by LC-MS/MS analysis; assay type: ADME, organism-based; design: dose 20 mg/kg, route po
[27] = Cmax in C3H/J mouse plasma at 300 mg/kg, po by LC-MS/MS analysis; assay type: ADME, organism-based; design: dose 300 mg/kg, route po
[28] = Permeability of the compound by PAMPA analysis; assay type: ADME; conditions: read-out: permeability
[29] = Dose normalized Cmax in C3H/J mouse at 5 mg/kg, po by LC-MS/MS analysis; assay type: ADME, organism-based; conditions: in vivo
[30] = Dose normalized Cmax in C3H/J mouse at 300 mg/kg, po by LC-MS/MS analysis; assay type: ADME, organism-based; conditions: in vivo
[31] = fCmin in HBVcircle mouse model at 100 mg/kg BID; assay type: ADME, organism-based; conditions: in vivo
[32] = Tmax in C3H/J mouse at 300 mg/kg, po by LC-MS/MS analysis; assay type: ADME, organism-based; conditions: in vivo
[33] = Dose normalized Cmax in C3H/J mouse at 100 mg/kg, po by LC-MS/MS analysis; assay type: ADME, organism-based; conditions: in vivo
[34] = fCmax in HBVcircle mouse model at 100 mg/kg BID; assay type: ADME, organism-based; conditions: in vivo
[35] = Half life in C3H/J mouse at 5 mg/kg, po by LC-MS/MS analysis; assay type: ADME, organism-based; conditions: in vivo
[36] = fCaverage in HBVcircle mouse model at 100 mg/kg QD; assay type: ADME, organism-based; conditions: in vivo
[37] = fCmin in HBVcircle mouse model at 100 mg/kg QD; assay type: ADME, organism-based; conditions: in vivo
[38] = AUC (0 to infinity) in C3H/J mouse at 5 mg/kg, po by LC-MS/MS analysis; assay type: ADME, organism-based; design: time infinity, dose 5 mg/kg, route po; conditions: in vivo
[39] = fCmax in HBVcircle mouse model at 300 mg/kg BID; assay type: ADME, organism-based; conditions: in vivo
[40] = Tmax in C3H/J mouse at 20 mg/kg, po by LC-MS/MS analysis; assay type: ADME, organism-based; conditions: in vivo
Hepatitis B virus [41] = assay: Antiviral activity against HBV infected HBVcircle mouse model assessed as reduction in HBeAg levels in mouse serum at 300 mg/kg, po bid treated for 3 weeks and measured up to 56 days; assay type: functional, organism-based
[42] = Cmax in C3H/J mouse plasma at 5 mg/kg, po by LC-MS/MS analysis; assay type: ADME, organism-based; design: dose 5 mg/kg, route po
[43] = Metabolic stability in mouse hepatocytes assessed as intrinsic clearance; assay type: ADME, cell-based, Hepatocyte; conditions: read-out: CLH
[44] = Dose normalized AUC (0 to 24 hrs) in C57BL/6 mouse at 5 mg/kg, po by LC-MS/MS analysis; assay type: ADME, organism-based; conditions: in vivo

O=C(O)[C@@H]1CCN(c2ccc3c(=O)c4cccc(Cl)c4oc3c2)C1
f(Cave) [1]: 351 nM | fCmax [2]: 1151 nM | AUC/dose [3]: 1510 (ng·h/mL)/(mg/kg) | half-life [4]: 1.82 h | fCmin [5]: 62.2 nM | Cmax [6]: 32200 ng/mL | pIC50 (Hepatitis B virus [7]): 5.94 | f(Cave) [8]: 1053 nM | AUC(0-inf) [9]: 11800 ng·h/mL | solubility [10]: > 452 µg/mL | pIC50 (Hepatitis B virus [11]): 6.24 | Activity [12]: Non-Toxic | AUC/dose [13]: 1200 (ng·h/mL)/(mg/kg) | Tmax [14]: 0.25 h | AUC(0-t) at 12 h [15]: 453000 ng·h/mL | pIC50 (Hepatitis B virus [16]): < 4.30 | Activity (Hepatitis B virus [17]): Active | Activity (Hepatitis B virus [18]): Active | Tmax [19]: 0.5 h | AUC(0-inf) [20]: 120000 ng·h/mL | Cmax/dose [21]: 408 ng/mL | Activity (Hepatitis B virus [22]): Active | AUC/dose [23]: 591 (ng·h/mL)/(mg/kg) | logD [24]: 1 | half-life [25]: 3.45 h | Cmax [26]: 8160 ng/mL | Cmax [27]: 59900 ng/mL | Papp [28]: 2.82 ×10⁻⁶ cm/s | Cmax/dose [29]: 166 ng/mL | Cmax/dose [30]: 200 ng/mL | fCmin [31]: 20.7 nM | Tmax [32]: 2.67 h | Cmax/dose [33]: 322 ng/mL | fCmax [34]: 1151 nM | half-life [35]: 3.46 h | f(Cave) [36]: 178 nM | fCmin [37]: 0.23 nM | AUC(0-inf) [38]: 857 ng·h/mL | fCmax [39]: 3.452 µM | Tmax [40]: 0.5 h | Activity (Hepatitis B virus [41]): Active | Cmax [42]: 828 ng/mL | CLint scaled [43]: 51.9 mL/min/kg | AUC/dose [44]: 1042 ng·h/mL
